Reference: US3962269A, “1,3-Propandiol intermediates” (Eli Lilly and Company, priority 1975, dated 1976)
Where a name gives a salt, the structure may show the parent alone.

Key:
[1] = analgesic activity, general statements; type: in vivo; details: in words
[2] = mouse writhing assay (acetic acid), analgesic activity; type: in vivo, mouse (Cox standard males); details: for ED50 / PT (peak analgesic time), Mouse Writhing, Oral / PT (peak analgesic time), Mouse Writhing, Subcutaneous: mouse; for ED50: dose giving significant peak analgesic effect in 50 percent of test animals; for PT (peak analgesic time), Mouse Writhing, Oral / PT (peak analgesic time), Mouse Writhing, Subcutaneous: time after dosing of maximum analgesic response
Procedure: Analgesic activity for representative compounds of the instant invention was determined with two standard animal techniques. The mouse writhing assay used was a modification of the method wherein frequency of writhing [Hendershot and Sorsaith, J. Pharm. Exp. Ther. 125, 237 (1959)] is observed after intra peritoneal administration of 0.6 percent acetic acid [Koster et al., Fed. Proc. Soc. Expt. Biol. 18, 412 (1959)]. The mice were Cox standard males weighting 20-22 gm. The number of writhes was determined for each of five mice during the period 5-15 minutes after acetic acid treatment. The percent inhibition due to drug treatment was determined by comparison with control mice.
(§1) Table 1 below gives the results of testing representative compounds of this invention as analgesics by the above methods. The first four columns in Table 1 describe the particular compound tested. The next eight columns give the mouse writhing results and the rat tail jerk results both by oral and subcutaneous administration. The columns headed PT ("Peak Analgesic Time") give the time in minutes after dosing at which the maximum analgesic responses are measured. The columns headed "ED50 (mg./kg.)" give the doses (ED50) in milligrams per kilogram (mg./kg.) of body weight that produce a significant peak analgesic effect in 50 percent of test animals.

[3] = rat tail jerk assay, analgesic activity; type: in vivo, rat (Sprague-Dawley females); details: for ED50: dose giving significant peak analgesic effect in 50 percent of test animals; for PT (peak analgesic time), Rat Tail Jerk, Oral / PT (peak analgesic time), Rat Tail Jerk, Subcutaneous: time after dosing of maximum analgesic response
Text: The other analgesic method was the rat tail jerk assay described by Robbins, J. Amer. Pharm. Assoc. Sci. Ed., 44, 497 (1955). The rats were Sprague-Dawley females weighing 70-90 g. Briefly, the tail was held on a temperature controlled tail rest near a nichrome resistance wire through which a current could flow. A switch used to start the flow of current to heat the wire simultaneously started a timer. When a jerk of the tail was detected by the operator, the switch was released and the latency of the response was recorded as the "reaction time." The tail was placed near the hot wire stimulus for a maximum duration of 30 seconds. Twenty rats were tested as a group in a randomized order. At least five rats were used for each treatment and each rat was dosed and tested only once.
as §1

[4] = cited from earlier work
[5] = oral, read-out: ED50, Mouse Writhing, Oral
[6] = sc, subcutaneous, read-out: ED50, Mouse Writhing, Subcutaneous
[7] = oral, read-out: ED50, Rat Tail Jerk, Oral
[8] = sc, subcutaneous, read-out: ED50, Rat Tail Jerk, Subcutaneous

| SMILES | analgesic activity [1] | ED50 [2, 5] [mg/kg] | PT (peak analgesic time), Mouse Writhing, Oral ([2]; oral) [min] | PT (peak analgesic time), Mouse Writhing, Subcutaneous ([2]; subcutaneous) [min] | ED50 [2, 6] [mg/kg] | ED50 [3, 7] [mg/kg] | PT (peak analgesic time), Rat Tail Jerk, Oral ([3]; oral) [min] | ED50 [3, 8] [mg/kg] | PT (peak analgesic time), Rat Tail Jerk, Subcutaneous ([3]; subcutaneous) [min] | analgesic activity (literature) [4] | side effects (literature) [4] | duration of analgesic action in mice ([2]; mice) |
| --- | --- | --- | --- | --- | --- | --- | --- | --- | --- | --- | --- | --- |
| CN(C)C(c1ccccc1)C1COCOC1 (single isomer, unassigned) [1-N,N-dimethyl-α-phenyl-m-dioxane-5-methylamine] | analgesically active |  |  |  |  |  |  |  |  |  |  |  |
| CN(C)C(c1ccccc1)C1COCOC1 (single isomer, unassigned) [l C6 H5, H, HCl, l-N,N-dimethyl-α-phenyl-m-dioxane-5-methylamine hydrochloride] |  | 16 | 15 | 15 | 6 | 10 to 20 | 15 | 7 | 15 |  |  |  |
| c1ccc(C2(c3ccccc3)OC[C@H]([C@@H]3CCCCN3)O2)cc1 [Dexoxadrol, d-2,2-diphenyl-4-(2-piperdyl)-1,3-dioxolane hydrochloride] |  |  |  |  |  |  |  |  |  | mild analgesic | high incidence of psychotomimetic side effects |  |
| CC1OCC(CN(C)C)O1 (stereo not drawn) [N,N,2-Trimethyl-1,3-dioxolane-4-methylamine] |  |  |  |  |  |  |  |  |  | mild analgesic | cholinergic side effects |  |
| CN(C)C(c1cccnc1)C1COCOC1.Cl.Cl (stereo not drawn) [dl 3-pyridyl, H, 2HCl, N,N-dimethyl-α-(3-pyridyl)-m-dioxane-5-methylamine dihydrochloride] |  | 25 | 30 | 30 | 10 | 7 | 15 | 7 | 15 |  |  |  |
| Cc1ccc(C(C2COCOC2)N(C)C)cc1.O=C(O)/C=C\C(=O)O (stereo not drawn) [dl 4-CH3 --C6 H4, H, Maleate, N,N-dimethyl-α-(4-methylphenyl)-m-dioxane-5-methylamine maleate] |  | 110 | 45 | 30 | 20 | 60 | 45 | 8 | 30 |  |  |  |
| CCC1OCC(C(c2ccccc2)N(C)C)CO1 (stereo not drawn) [dl C6 H5, C2 H5, N,N-dimethyl-2-ethyl-α-phenyl-m-dioxane-5-methylamine] |  | 23 | 75 | 75 | 19 | 21 | 15 | 3.4 | 15 |  |  | long acting in mice |
| CC1OCC(C(c2ccccc2)N(C)C)CO1 (stereo not drawn) [dl C6 H5, CH3, N,N,2-Trimethyl-α-phenyl-m-dioxane-5-methylamine] |  | 19 | 15 | 15 | 3.6 | 12 | 15 | 2.8 | 20 |  |  |  |
| CN(C)C(c1ccccc1)C1COCOC1.Cl (stereo not drawn) [dl C6 H5, H, HCl, N,N-dimethyl-α-phenyl-m-dioxane-5-methylamine hydrochloride] |  | 28 | 45 | 15 | 15 | 27 | 15 | 4.5 | 15 |  |  |  |
